According to paper PMC5577653, “Lactoferricin Peptides Increase Macrophages' Capacity To Kill Mycobacterium avium” (mSphere, 2017):
Counter-ions that a name gives are not always drawn. Square brackets hold non-standard residues; d marks the D form. Ends that are not written are not given here. Peptide text beside a SMILES is read from it.

Legend:
M. avium 2447 SmT = experiment: Intramacrophagic M. avium growth, CFU assay in BALB/c BMM; format: cell-based, Mycobacterium avium; details: peptides 40 µM, ethambutol 7.2 µM, each alone, 5 days
Experimental: Given that the peptides at up to 40 µM were not toxic to macrophages, we evaluated their effect on M. avium growing inside these cells. Bone marrow-derived macrophages were obtained from BALB/c mice and infected with M. avium 2447 smooth transparent variant (SmT). The different peptides were added at 40 µM, and ethambutol was added at 7.2 µM. After 5 days in culture, the number of intracellular bacteria per culture well was quantified in a CFU assay (Fig. 1D).
BMM at day 10 of culture were infected with 10^6 CFU of M. avium 2447 SmT for 4 h at 37°C in a 7% CO2 atmosphere. After incubation, cells were washed several times to remove noninternalized bacteria and reincubated with new medium with or without 40 µM peptide (76.9 µg/ml LFcin17–30 and D-LFcin17–30, 73.6 µg/ml LFcin17–30 all R, 80.3 µg/ml LFcin17–30 all R), alone or in combination with the antibiotic ethambutol (2 µg/ml or 7.2 µM ethambutol dihydrochloride; Sigma-Aldrich, St. Louis, MO, USA). Each condition was tested in triplicate. After 5 days in culture, the intracellular growth of M. avium 2447 SmT was evaluated by determining the number of CFU, as described previously ([75]).

in vitro = details: cell culture medium (supplemented DMEM)
Experimental: (§1) After 0, 0.5, 2, 4, 8, 24, 48, 72, and 96 h of incubation, a 40-µl aliquot was immediately injected for RP-HPLC analysis using an elution gradient of 0 to 100% acetonitrile in 0.05% aqueous trifluoroacetic acid (TFA) for 30 min at a flow rate of 1 ml/min.
(§2) At the end of 0, 0.5, 2, 4, 8, 24, 48, 72, and 96 h, an aliquot was taken from each mixture and analyzed by high-performance liquid chromatography (HPLC). The HPLC (Hitachi Elite Autosampler L-2200, pump L-2130, diode array detector L-2455, and column oven L-2300) was performed with a 150-mm-diameter C18 reverse-phase column (Merck). Each analysis involved an injection volume of 40 µl and elution with 0 to 100% acetonitrile in 0.05% aqueous trifluoroacetic acid (TFA) at a flow rate of 1 ml/min; the detection wavelength was set to 220 nm. The chromatograms were analyzed with EZChrom Elite software, and the peaks were integrated to extract the area.

[1] = 40 µM peptide in supplemented DMEM cell culture medium, 37°C, up to 96 h; RP-HPLC C18, UV 220 nm, peak area relative to time zero
Experimental: as §1, §2

[2] = tested on: M. avium-infected macrophages; details: M. avium 2447 SmT-infected BMM; 4 to 120 h; data not shown
M. avium = details: broth culture; cited from earlier work
Source text: In contrast, we now verify that only D-LFcin17–30 induces a significant decrease in mycobacterial growth inside macrophages. However, all peptides were effective when combined with the antibiotic ethambutol. The combination of antimicrobial peptides with conventional antibiotics is of great potential interest, as it might reduce the dosages of each ...

Compound	levels of apoptosis or necrosis [2]	activity against M. avium in axenic cultures (M. avium)	also measured
CC[C@@H](CO)NCCN[C@@H](CC)CO [ethambutol, ethambutol dihydrochloride]			inhibition of intramacrophagic M. avium growth, compound alone (M. avium 2447 SmT): None of the other peptides or ethambutol alone significantly inhibited M. avium growth
FKCRRWQWRMKKLG [LFcin17–30]	no significant changes		metabolised at 24 h, 40 µM (in vitro): 50%; degradation of peptide after 96 h of incubation [1]: completely degraded
FKCKKWQWKMKKLG [LFcin17–30 all K, LFcin17–30 variant with all arginines replaced with lysines]		all active	
FRCRRWQWRMRRLG [LFcin17–30 all R, LFcin17–30 variant with all lysines replaced with arginines]		all active	
CSCC[C@@H](NC(=O)[C@@H](CCCNC(=N)N)NC(=O)[C@@H](Cc1c[nH]c2ccccc12)NC(=O)[C@@H](CCC(N)=O)NC(=O)[C@@H](Cc1c[nH]c2ccccc12)NC(=O)[C@@H](CCCNC(=N)N)NC(=O)[C@@H](CCCNC(=N)N)NC(=O)[C@@H](CS)NC(=O)[C@@H](CCCCN)NC(=O)[C@H](N)Cc1ccccc1)C(=O)N[C@H](CCCCN)C(=O)N[C@H](CCCCN)C(=O)N[C@H](CC(C)C)C(=O)NCC(=O)O [D-LFcin17–30] (H-[dF][dK][dC][dR][dR][dW][dQ][dW][dR][dM][dK][dK][dL]G-OH)	no significant changes		metabolised at 96 h, 40 µM (in vitro): ≤ 30%
